The text below walks through data of US11471458B2, “Diacylglycerol acyl transferase 2 inhibitor” (Pfizer Inc., priority 2019, dated 2022).

Data set [1] in a line: Intrinsic clearance in human liver microsomes. It is filed as in vitro ADME. The settings on record: human, pooled human liver microsomes (50 donors), pH 7.4, human liver microsome assay; 1 μM test compound, 0.806 mg/mL protein, NADPH, pH 7.4, 37° C.; mean +/− STD Dev; read-out: CLint (μL/min/mg) (+/− STD Dev). The procedure:
The incubations were conducted at 37° C. […] (Sorvall RC 3C Plus, Thermo Scientific, Waltham, Mass.).
For orientation: Liver microsomes are a subcellular fraction often used to study metabolism.

Data set [2] can be described thus: High throughput determination of intrinsic clearance in human hepatocytes. The format is in vitro ADME. As to conditions: human, pooled cryopreserved human hepatocytes (10 donors), high throughput human hepatocyte assay; 0.5 million cells/mL, 1 μM test compound, 37° C.; mean +/− Std Dev; read-out: CLint (μL/min/10^6 cells) (+/− Std Dev). As to the method: The incubation was carried out at 37° C. […] The samples were centrifuged (Eppendorf, Hauppauge, N.Y.) at 3000 rpm for 5 min at 4° C.

The nature of data set [3]: Intrinsic clearance in human hepatocytes (relay method). It is filed as in vitro ADME. The settings on record: human, cryopreserved human hepatocytes (suspension, relay method), 20 h total incubation, mean +/− standard deviation, read-out: CLint (+/− Std Dev), relay hepatocyte assay. As to the method:
For intrinsic clearance (CLint) measurement, hepatocyte relay method was used (Di, L., et al. 2012, Drug Metab. Dispos., 40, 1860-1865 and Di, L., et al. 2013, Drug Metab. Dispos., 41, 2018-2023). Cryopreserved human hepatocytes (Lot DCM from BioreclamationlVT) were used. Upon thawing, the hepatocytes were resuspended in Williams' medium E (custom formula number 91-5233EA; Gibco, Grand Island, N.Y.) supplemented with Hepes and Na2CO3. […] The plates were incubated at 37° C. with 95% air/5% CO2, 75% relative humidity for 4 h at 150 rpm in a humidified incubator. At time 0 and 4 h, 25 μL of hepatocyte suspension was removed from the incubation and added to 50 μL of ice-cold acetonitrile (containing metoprolol, indomethacin, and terfenadine as internal standards) to quench the reaction. The samples were centrifuged (Eppendorf, Hauppauge, N.Y.) at 3000 rpm (1439×g) for 10 min at room temperature, and 50 μL of supernatant was transferred to a clean plate, dried completely, and reconstituted before liquid chromatography/tandem mass spectrometry (LC-MS/MS) analysis. The remaining hepatocyte suspensions in the incubation plate were centrifuged (3000 rpm, 1439×g, 10 min, room temperature). The supernatant of 300 μL was transferred to a clean 24-well plate and stored at −80° C. until the next relay experiment. For the second relay experiment, the supernatant plates were warmed first to room temperature for 30 minutes, then to 37° C. for 30 min, and hepatocytes were added to the samples to give a final cell density of 0.5 million cells/mL. The plates were incubated at 37° C. for 4 h, sampled, and processed as described above. Five relays were performed to give a total incubation time of 20 h, with sampling points at (0, 4, 8, 12, 16 and 20 h). The concentrations of test compound determined at each time point by the LC-MS/MS analysis were used to calculate the intrinsic clearance.

Data set [4] in a line: Determination of pKa (capillary electrophoresis, Analiza, Inc.). It is filed as physicochemical. As to conditions: mean, read-out: Basic pKa (most basic pKa).
The nature of data set [5]: Thermodynamic solubility in various biorelevant media. It is filed as physicochemical. As to conditions: crystalline solid; for solubility at 25 h: 25 °C, thermodynamic from solid. As to the method: The solubility of active pharmaceutical ingredients is an important characteristic in determining biological performance and ease of formulation during drug development, with high solubility being preferred (Klein, S. 2010, The AAPS Journal, 12, 397-406; Di, L., et al 2012, Drug Disc. Today, 17. 486-495). A test sample of crystalline solid (˜7 mg) was combined in a vial with 1 mL of the relevant buffer solution and the mixture vortexed to combine. If the solid dissolved completely, additional solid was added with vortexing until a saturated solution was obtained. The saturated solution/solid mixture was capped and subjected to temperature cycling as follows: 1 min at 25° C., 8 h at 40° C., 5 h at 15° C. and 12 h at 25° C. The mixture was filtered in a centrifugal filtration device (0.22 μm PVDF filter, MilliporeSigma, Milwaukee, Wis.) at 13,000 rpm and the concentration of the test compound in the filtrate was determined by HPLC/UPLC with reference to a three point standard curve. Phosphate buffered saline (PBS, pH 6.8, 50 mM phosphate buffer, 250 mM NaCl). Simulated gastric fluid (SGN pH 1.2, USP recipe). Fasted state simulated intestinal fluid (FaSSIF, 3 mM sodium taurocholate, 0.75 mM phospholipid from soybean lecithin, 50 mM phosphate buffer, ionic strength adjusted to 250 mM with NaCl, pH 6.8) and fed state simulated intestinal fluid (FeSSIF, 15 mM sodium taurocholate, 3.75 mM phospholipid from soybean lecithin, 144 mM acetic acid, 50 mM phosphate buffer, ionic strength adjusted to 250 mM with NaCl, pH 6.8).

A further data set concerns the target human DGAT2 (hDGAT2) (Homo sapiens (Human), UniProt Q96PD7). Briefly: In vitro DGAT2 assay, determination of IC50 values for DGAT2 inhibitors. It is filed as biochemical. As to conditions: hDGAT2 membrane fraction; geometric mean. The procedure: Recombinant baculovirus for the FLAG-tagged hDGAT2 was generated in SF9 insect cells using Bac-to-Bac baculovirus expression system (Invitrogen) according to the manufacturer's protocol. For the expression of hDGAT2, SF9 cells (20 L) grown in Sf900II media were infected with hDGAT2 baculovirus at a multiplicity of infection of 1 in a Wave Bioreactor System 20/50P wave bag (GE Healthcare). After 40 hours of infection, the cells were then harvested by centrifugation at 5,000×g. The cell pellets were washed by resuspending in phosphate buffered saline (PBS) and collected by centrifugation at 5,000×g. The cell paste was flash frozen in liquid N2 and stored at −80° C. until needed. All operations below were at 4° C. unless otherwise noted. The cells were resuspended in lysis buffer (50 mM Tris-HCl, pH 8.0, 250 mM sucrose) including 1 mM ethylenediaminetetraacetic acid (EDTA) and the complete protease inhibitor cocktail (Roche Diagnostics) at a ratio of 3 mL buffer per 1 g cell paste. The cells were lysed by dounce homogenizer. The cell debris was removed by centrifugation at 1,000×g for 20 min, and the supernatant was centrifuged at 100,000×g for 1 hour. The resulting pellet was rinsed three times by filling ultracentrifuge tubes to the top with ice cold PBS before decanting. The washed pellet was resuspended with gentle stirring for 1 hour in lysis buffer containing 8 mM 3-[(3-cholamidopropyl)dimethylammonio]-1-propanesulfonate (CHAPS) at a ratio of 1 mL buffer per 1 g of original cell paste and centrifuged again at 100,000×g for 1 hour. The resulting supernatant was aliquotted, flash frozen in liquid N2, and stored at −80° C. until use.
To 1 μL of compounds dissolved in 100% DMSO and spotted at the bottom of each well, 5 μL of 0.04% bovine serum albumin (BSA) (fatty acid free, Sigma Aldrich) was added and the mixture was incubated at room temperature for 15 minutes. hDGAT2 membrane fractions were diluted in 100 mM Hepes-NaOH, pH 7.4, 20 mM MgCl2 containing 200 nM methyl arachidonyl fluorophosphonate (Cayman Chemical; dried from ethyl acetate stock solution under argon gas and dissolved in DMSO as 5 mM stock). 10 μL of this enzyme working solution was added to the plates and incubation continued for 2 hours at room temperature. […] Plates were centrifuged at 2,000×g for 1 minute in an Allegra 6R Centrifuge (Beckman Coulter) and then were sealed again with fresh covers before reading in a 1450 Microbeta Wallac Trilux Scintillation Counter (Perkin Elmer). DGAT2 activity was measured by quantifying the generated product [^14C]tridecanoylglycerol in the upper organic phase. […]

Converted amounts (≈) assume the structure as drawn. Structures can show the parent of a compound that is named as a salt.

human DGAT2 (hDGAT2), sequence (Q96PD7 whole entry): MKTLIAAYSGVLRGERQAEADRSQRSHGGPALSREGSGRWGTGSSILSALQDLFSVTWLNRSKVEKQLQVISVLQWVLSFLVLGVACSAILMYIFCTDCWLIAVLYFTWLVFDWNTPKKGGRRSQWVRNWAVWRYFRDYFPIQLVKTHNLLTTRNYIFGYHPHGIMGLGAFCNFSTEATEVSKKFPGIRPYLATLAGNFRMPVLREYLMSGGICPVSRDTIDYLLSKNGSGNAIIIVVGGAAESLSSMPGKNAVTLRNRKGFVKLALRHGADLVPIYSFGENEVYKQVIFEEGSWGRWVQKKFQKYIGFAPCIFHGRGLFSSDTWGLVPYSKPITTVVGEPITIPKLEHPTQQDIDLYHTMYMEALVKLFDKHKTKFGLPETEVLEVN

Consider `CCOc1cccnc1Oc1cncc(-c2ncc(C(=O)N[C@H]3CCC(C(F)(F)F)NC3)cn2)c1` (mixture of isomers) [Example 8, rac-2-{5-[(3-ethoxypyridin-2-yl)oxy]pyridin-3-yl}-N-[(3R,6S)-6-(trifluoromethyl)piperidin-3-yl]pyrimidine-5-carboxamide or rac-2-{5-[(3-ethoxypyridin-2-yl)oxy]pyridin-3-yl}-N-[(3R,6R)-6-(trifluoromethyl)piperidin-3-yl]pyrimidine-5-carboxamide], for which, in data set [1], the microsomal CLint at 1 μM was below 14 µL/min/mg. For the same compound, in data set [2], the hepatocyte CLint at 1 μM is 12 µL/min/1e6 cells.
In general, pKa refers to the pH at which an ionisable group is half protonated. For `CCOc1cccnc1Oc1cncc(-c2ncc(C(=O)NC3(CO)CCOC3)cn2)c1` (single isomer, unassigned) [WO2018033832 Ex. 6a], the hepatocyte CLint at 1 μM in data set [3] was 3.2 µL/min/1e6 cells; in data set [2], below 3.8 µL/min/1e6 cells. Also, the pKa in data set [4] turned out to be 2.3. In data set [1], the microsomal CLint at 1 μM was 13 µL/min/mg.
For `CCOc1cc(F)cnc1Oc1cncc(-c2ncc(C(=O)N[C@@H]3CNCC[C@@H]3F)cn2)c1` [Example 1, 2-{5-[(3-Ethoxy-5-fluoropyridin-2-yl)oxy]pyridin-3-yl}-N-[(3R,4S)-4-fluoropiperidin-3-yl]pyrimidine-5-carboxamide, bis(trifluoroacetate) Salt], in data set [4], the pKa was determined as 7.7. Moreover, in data set [1], the microsomal CLint at 1 μM is below 7 µL/min/mg. In addition, in data set [2], the hepatocyte CLint at 1 μM is below 2.7 µL/min/1e6 cells.
For orientation: Solubility means the dissolved amount per volume that the medium holds. The low end stands for a poorly soluble substance, the high end for a readily soluble substance. The term solubility denotes how much of the substance goes into solution per volume. A high value points to much dissolved substance. In turn, `CCOc1cccnc1Oc1cncc(-c2ncc(C(=O)N[C@H]3CCOC3)cn2)c1` [WO2018033832 Ex. 1, Form 1] came in with a Solubility in data set [5] (SGN pH 1.2 (simulated gastric fluid)) of 78 µg/mL (≈ 191 µM). Further, the solubility at 25 h in data set [5] (fasted state simulated intestinal fluid (FaSSIF), pH 6.8, fassif, FaSSIF pH 6.8) was 69 µg/mL (≈ 169 µM); in data set [5] (phosphate buffered saline, pH 6.8, aqueous buffer, PBS, pH 6.8) it was 43 µg/mL (≈ 106 µM).
For the compound `CCOc1cccnc1Oc1cncc(-c2ncc(C(=O)N[C@H]3CCOC3)cn2)c1` [WO2018033832 Ex. 1, Form 2], the Solubility in data set [5] (FaSSIF pH 6.8) turned out to be 93 µg/mL (≈ 228 µM); in data set [5] (PBS, pH 6.8) it was 60 µg/mL (≈ 147 µM).
Consider `CCOc1cccnc1Oc1cncc(-c2ncc(C(=O)N[C@H]3CCOC3)cn2)c1` [WO2018033832 Ex. 1], for which the hepatocyte CLint at 1 μM in data set [3] is 3.9 µL/min/1e6 cells; in data set [2] it was below 3.8 µL/min/1e6 cells. For the same compound, the pKa in data set [4] turned out to be 2.4. In data set [1], the microsomal CLint at 1 μM stood at 11 µL/min/mg.
Consider `CCOc1cccnc1Oc1cncc(-c2ncc(C(=O)N[C@@H]3CCOC3)cn2)c1` [WO2018033832 Ex. 2], for which the hepatocyte CLint at 1 μM was determined as 4.9 µL/min/1e6 cells in data set [3] and 4.7 µL/min/1e6 cells in data set [2]. For the same compound, in data set [4], the pKa was 2.5. For the same compound, in data set [1], the microsomal CLint at 1 μM turned out to be 17 µL/min/mg.
As usually defined, the IC50 is the concentration that inhibits the measured activity by half. Low values mean greater potency in that assay, high ones weaker potency in that assay. For `CCOc1cccnc1Oc1cncc(-c2ncc(C(=O)NC3(C)CCS(=O)(=O)C3)cn2)c1` (stereo not shown) [WO2018033832 Ex. 3.1], the microsomal CLint at 1 μM in data set [1] is 30 µL/min/mg. Also, in data set [2], the hepatocyte CLint at 1 μM was determined as 9.3 µL/min/1e6 cells. Besides, the IC50 against human DGAT2 (hDGAT2) worked out at 13 nM.
Taken in the same sequence, the figures for `CCOc1cccnc1Oc1cncc(-c2ncc(C(=O)NC3CCS(=O)(=O)C3)cn2)c1` (stereo not shown) [WO2018033832 Ex. 3.3] were below 8 µL/min/mg, 5.1 µL/min/1e6 cells and 200 nM.
Consider `CCOc1cc(F)cnc1Oc1cncc(-c2ncc(C(=O)N[C@H]3CCOC3)cn2)c1` [WO2018033832 Ex. 8], for which the microsomal CLint at 1 μM in data set [1] was below 9.6 µL/min/mg. Moreover, in data set [2], the hepatocyte CLint at 1 μM is 9.3 µL/min/1e6 cells. On human DGAT2 (hDGAT2), this compound showed an IC50 of 3.3 nM.
